Test: Emitted 6.8 micron particle fraction from vortex chamber versus ratio of chamber diameter to exit port diameter
Type: physicochemical
Settings: for Normalised average particle fraction <6.8 μm (%): emitted fraction divided by fraction of the loaded powder
From the text: The normalised average 6.8 micron particle fraction is the emitted 6.8 micron particle fraction divided by the 6.8 micron particle fraction of the powdered medicament loaded into the inhaler. The medicament used was pure Intal™ sodium cromoglycate (Fisons UK).

- Average particle fraction <6.8 μm (%) (Ratio D/De 2.0): 64.7%
- Normalised average particle fraction <6.8 μm (%) (Ratio D/De 2.0): 73.1%
- Average particle fraction <6.8 μm (%) (Ratio D/De 3.1): 70.8%
- Normalised average particle fraction <6.8 μm (%) (Ratio D/De 3.1): 79.9%
- Average particle fraction <6.8 μm (%) (Ratio D/De 4.0): 75.5%
- Normalised average particle fraction <6.8 μm (%) (Ratio D/De 4.0): 85.2%
- Average particle fraction <6.8 μm (%) (Ratio D/De 6.0): 81.0%
- Normalised average particle fraction <6.8 μm (%) (Ratio D/De 6.0): 91.4%
- Average particle fraction <6.8 μm (%) (Ratio D/De 7.1): 83.5%
- Normalised average particle fraction <6.8 μm (%) (Ratio D/De 7.1): 94.3%
- Average particle fraction <6.8 μm (%) (Ratio D/De 8.0): 83.2%
- Normalised average particle fraction <6.8 μm (%) (Ratio D/De 8.0): 93.9%
- Average particle fraction <6.8 μm (%) (Ratio D/De 8.6): 80.6%
- Normalised average particle fraction <6.8 μm (%) (Ratio D/De 8.6): 91.0%
Structure (SMILES): O=C(O)c1cc(=O)c2c(OCC(O)COc3cccc4oc(C(=O)O)cc(=O)c34)cccc2o1 [sodium cromoglycate]

From US20070081948A1, “Dry powder composition comprising a benzodiazepine for pulmonary inhalation” (Vectura Limited, priority 2003, published 2007)
